Laboratory results: PubChem BioAssay (NCI)
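48-hour exposure; five concentrations; linearly interpolated endpoints. The concentration for 50% growth inhibition is given as GI50. TGI marks complete inhibition of growth.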

Legend:
Test in all cases: growth of human tumour cells (NCI), 48 h
[1] = test system: MCF7 breast
[2] = test system: SNB-75 CNS
[3] = test system: 786-0 renal
[4] = test system: CAKI-1 renal
[5] = test system: SF-268 CNS
[6] = test system: SK-OV-3 ovarian
[7] = test system: MALME-3M melanoma
[8] = test system: A498 renal
[9] = test system: NCI-H460 lung
[10] = test system: HL-60(TB) leukemia
[11] = test system: ACHN renal
[12] = test system: MDA-MB-231 breast
[13] = test system: TK-10 renal
[14] = test system: HT29 colon
[15] = test system: OVCAR-5 ovarian
[16] = test system: OVCAR-4 ovarian
[17] = test system: SW-620 colon
[18] = test system: IGROV1 ovarian
[19] = test system: SK-MEL-2 melanoma
[20] = test system: UACC-62 melanoma
[21] = test system: SNB-19 CNS
[22] = test system: M14 melanoma
[23] = test system: SF-295 CNS
[24] = test system: HOP-92 NSCLC
[25] = test system: SN12C renal
[26] = test system: COLO 205 colon
[27] = test system: NCI-H522 lung
[28] = test system: K-562 leukemia
[29] = test system: PC-3 prostate
[30] = test system: SR leukemia
[31] = test system: HCT-116 colon
[32] = test system: KM12 colon
[33] = test system: MDA-MB-435
[34] = test system: HOP-62 NSCLC
[35] = test system: NCI/ADR-RES ovarian
[36] = test system: UO-31 renal
[37] = test system: CCRF-CEM leukemia
[38] = test system: DU-145 prostate
[39] = test system: HCC-2998 colon
[40] = test system: NCI-H226 lung
[41] = test system: RPMI-8226 leukemia
[42] = test system: NCI-H23 lung
[43] = test system: HCT-15 colon
[44] = test system: T-47D breast
[45] = test system: SK-MEL-28 melanoma
[46] = test system: OVCAR-3 ovarian
[47] = test system: UACC-257 melanoma
[48] = test system: MOLT-4 leukemia
[49] = test system: HS 578T breast
[50] = test system: SF-539 CNS
[51] = test system: LOX IMVI melanoma
[52] = test system: U251 CNS
[53] = test system: EKVX NSCLC
[54] = test system: BT-549 breast
[55] = test system: RXF 393 renal
[56] = test system: OVCAR-8 ovarian
[57] = test system: SK-MEL-5 melanoma

CC(C)=NNc1ncnc2c1ncn2C1OC(CO)C(O)C1O (stereo unspecified)
GI50 [1]: 0.327 µM | TGI [1]: > 51.5 µM | GI50 [2]: 1.34 µM | TGI [2]: > 78.1 µM | GI50 [3]: 0.72 µM | TGI [3]: 30.4 µM | GI50 [4]: 0.303 µM | TGI [4]: 17.1 µM | GI50 [5]: 1.41 µM | TGI [5]: > 100 µM | GI50 [6]: 0.324 µM | TGI [6]: 4.22 µM | GI50 [7]: 11.8 µM | TGI [7]: > 100 µM | GI50 [8]: 1.43 µM | TGI [8]: > 100 µM | GI50 [9]: 0.304 µM | GI50 [10]: 0.402 µM | TGI [10]: 5.61 µM | GI50 [11]: 0.278 µM | TGI [11]: 3.24 µM | GI50 [12]: 0.285 µM | TGI [12]: 13.6 µM | GI50 [13]: 0.529 µM | TGI [13]: > 100 µM | GI50 [14]: 0.268 µM | TGI [14]: > 100 µM | GI50 [15]: 1.16 µM | TGI [15]: > 31.1 µM | GI50 [16]: 0.509 µM | TGI [16]: > 32.1 µM | GI50 [17]: 0.381 µM | TGI [17]: > 100 µM | GI50 [18]: 0.287 µM | GI50 [19]: 1.81 µM | TGI [19]: 29.2 µM | GI50 [20]: 1.21 µM | TGI [20]: 9.3 µM | GI50 [21]: 1.43 µM | TGI [21]: > 100 µM | GI50 [22]: 0.752 µM | TGI [22]: > 100 µM | GI50 [23]: 0.529 µM | TGI [23]: > 33.2 µM | GI50 [24]: 0.503 µM | TGI [24]: 5.27 µM | GI50 [25]: 0.476 µM | TGI [25]: 15.3 µM | GI50 [26]: 0.414 µM | TGI [26]: 6.31 µM | GI50 [27]: 0.283 µM | TGI [27]: 3.24 µM | GI50 [28]: 0.417 µM | TGI [28]: > 100 µM | GI50 [29]: 0.733 µM | TGI [29]: 29.1 µM | GI50 [30]: 0.414 µM | TGI [30]: > 22 µM | GI50 [31]: 0.144 µM | TGI [31]: 2.07 µM | GI50 [32]: 0.378 µM | TGI [32]: 2.65 µM | GI50 [33]: 0.528 µM | TGI [33]: 11.7 µM | GI50 [34]: 0.398 µM | TGI [34]: 4.21 µM | GI50 [35]: 0.442 µM | TGI [35]: > 21.6 µM | GI50 [36]: 0.354 µM | TGI [36]: 7.68 µM | GI50 [37]: 0.581 µM | TGI [37]: > 100 µM | GI50 [38]: 0.324 µM | TGI [38]: 2.4 µM | GI50 [39]: 1.94 µM | TGI [39]: > 53 µM | GI50 [40]: 0.448 µM | TGI [40]: > 100 µM | GI50 [41]: 0.537 µM | TGI [41]: 4.04 µM | GI50 [42]: 1.48 µM | TGI [42]: 19.4 µM | GI50 [43]: 0.217 µM | GI50 [44]: 0.542 µM | TGI [44]: 9.6 µM | GI50 [45]: 4.5 µM | TGI [45]: > 100 µM | GI50 [46]: 0.385 µM | TGI [46]: 1.97 µM | GI50 [47]: 5.75 µM | TGI [47]: > 100 µM | GI50 [48]: 4.86 µM | TGI [48]: > 100 µM | GI50 [49]: 5.8 µM | TGI [49]: > 26.3 µM | GI50 [50]: 2.06 µM | TGI [50]: 11.3 µM | GI50 [51]: 0.228 µM | TGI [51]: 3.25 µM | GI50 [52]: 0.648 µM | TGI [52]: > 100 µM | GI50 [53]: 2.95 µM | TGI [53]: > 73.4 µM | GI50 [54]: 1.61 µM | TGI [54]: 15.4 µM | GI50 [55]: 0.3 µM | TGI [55]: 3.54 µM | GI50 [56]: 0.332 µM | TGI [56]: > 100 µM | GI50 [57]: 0.99 µM | TGI [57]: 4.2 µM
